From patent US9580463B2 (BRISTOL-MYERS SQUIBB COMPANY, priority 2013, dated 2017)
Read-outs that look alike come from different tables or passages of the source.

Columns and labels:
[1] = test system: HCV genotype 1b (Con1) replicon in HUH-7 cells; assay: HCV replicon luciferase reporter assay, genotype 1b; format: cell-based; details: Hepatitis C virus, 72 h, genotype 1b replicon, 3 days incubation
Summary of the method: (§1)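 Twenty-point, threefold compound titrations (0.5% DMSO) were incubated 3 days at 37 °C with 3.0×10^3 HUH-7 cells/well in 4% FCS. The cells stably carried luciferase replicons: genotype 1b Con1 (S1179I) or 1a H77 (NS3 P1496L, NS5A S2204I). Renilla signal was read after 2 h with 7.5 μM EnduRen, and EC50 was taken from a four-parameter logistic fit. Cytotoxicity (CC50) was measured by Cell Titer-Blue, 8 h.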

[2] = test system: HCV genotype 1a (H77 strain) replicon in HUH-7 cells; assay: HCV replicon luciferase reporter assay, genotype 1a; format: cell-based; details: Hepatitis C virus, 72 h, genotype 1a replicon, 3 days incubation
Summary of the method: as §1

| Compound | EC50 ([1]; read-out: LE_1b (EC50, range)) | EC50 ([2]; read-out: LE_1a (EC50, range)) | EC50 ([1]; read-out: LE_1b (EC50)) | EC50 ([2]; read-out: LE_1a (EC50)) |
| --- | --- | --- | --- | --- |
| COC[C@@H]1C[C@H](C)CC/C=C\[C@@H]2C[C@@]2(C(=O)NS(=O)(=O)C2(C)CC2)NC(=O)[C@@H]2C[C@@H](Oc3ncc(OC)c4ccccc34)CN2C(=O)[C@H]1NC(=O)OC(C)(C)C [Compound 1010, tert-butyl ((2R,6S,7R,9R,13aS,14aR,16aS,Z)-2-((4-methoxyisoquinolin-1-yl)oxy)-7-(methoxymethyl)-9-methyl-14a-(((1-methylcyclopropyl)sulfonyl)carbamoyl)-5,16-dioxo-1,2,3,5,6,7,8,9,10,11,13a,14,14a,15,16,16a-hexadecahydrocyclopropa[e]pyrrolo[1,2-a][1,4]diazacyclopentadecin-6-yl)carbamate] | 0.1 to 0.5 nM | 0.51 to 1 nM | – | – |
| COC[C@@H]1C[C@@H](C)CC/C=C\[C@@H]2C[C@@]2(C(=O)NS(=O)(=O)C2(C)CC2)NC(=O)[C@@H]2C[C@@H](Oc3nc4cc(OC)ccc4nc3C(F)(F)F)CN2C(=O)[C@H]1NC(=O)OC(C)(C)C(F)(F)F [Compound 1031, 1,1,1-trifluoro-2-methylpropan-2-yl ((2R,6S,7R,9S,13aS,14aR,16aS,Z)-2-((7-methoxy-3-(trifluoromethyl)quinoxalin-2-yl)oxy)-7-(methoxymethyl)-9-methyl-14a-(((1-methylcyclopropyl)sulfonyl)carbamoyl)-5,16-dioxo-1,2,3,5,6,7,8,9,10,11,13a,14,14a,15,16,16a-hexadecahydrocyclopropa[e]pyrrolo[1,2-a][1,4]diazacyclopentadecin-6-yl)carbamate] | 1.01 to 5 nM | 5.01 to 35 nM | – | – |
| COC[C@@H]1C[C@@H](C)CC/C=C\[C@@H]2C[C@@]2(C(=O)NS(=O)(=O)C2CC2)NC(=O)[C@@H]2C[C@@H](Oc3ncc(OC)c4ccccc34)CN2C(=O)[C@H]1NC(=O)OC(C)(C)C [Compound 1004, tert-butyl ((2R,6S,7R,9S,13aS,14aR,16aS,Z)-14a-((cyclopropylsulfonyl)carbamoyl)-2-((4-methoxyisoquinolin-1-yl)oxy)-7-(methoxymethyl)-9-methyl-5,16-dioxo-1,2,3,5,6,7,8,9,10,11,13a,14,14a,15,16,16a-hexadecahydrocyclopropa[e]pyrrolo[1,2-a][1,4]diazacyclopentadecin-6-yl)carbamate] | 1.01 to 5 nM | 1.01 to 5 nM | – | – |
| COC[C@@H]1C[C@@H](C)CC/C=C\[C@@H]2C[C@@]2(C(=O)NS(=O)(=O)C2(CF)CC2)NC(=O)[C@@H]2C[C@@H](Oc3nc4cc(OC)ccc4nc3C(C)C)CN2C(=O)[C@H]1NC(=O)OC(C)(C)C(F)(F)F [Compound 1040, 1,1,1-trifluoro-2-methylpropan-2-yl ((2R,6S,7R,9S,13aS,14aR,16aS,Z)-14a-(((1-(fluoromethyl)cyclopropyl)sulfonyl)carbamoyl)-2-((3-isopropyl-7-methoxyquinoxalin-2-yl)oxy)-7-(methoxymethyl)-9-methyl-5,16-dioxo-1,2,3,5,6,7,8,9,10,11,13a,14,14a,15,16,16a-hexadecahydrocyclopropa[e]pyrrolo[1,2-a][1,4]diazacyclopentadecin-6-yl)carbamate] | 35 to 620 nM | 35 to 620 nM | – | – |
| COC[C@@H]1C[C@H](C)CC/C=C\[C@@H]2C[C@@]2(C(=O)NS(=O)(=O)C2(C)CC2)NC(=O)[C@@H]2C[C@@H](Oc3nc4cc(OC)ccc4nc3C(F)(F)F)CN2C(=O)[C@H]1NC(=O)OC(C)(C)C(F)(F)F [Compound 1032, 1,1,1-trifluoro-2-methylpropan-2-yl ((2R,6S,7R,9R,13aS,14aR,16aS,Z)-2-((7-methoxy-3-(trifluoromethyl)quinoxalin-2-yl)oxy)-7-(methoxymethyl)-9-methyl-14a-(((1-methylcyclopropyl)sulfonyl)carbamoyl)-5,16-dioxo-1,2,3,5,6,7,8,9,10,11,13a,14,14a,15,16,16a-hexadecahydrocyclopropa[e]pyrrolo[1,2-a][1,4]diazacyclopentadecin-6-yl)carbamate] | 0.1 to 0.5 nM | 0.51 to 1 nM | – | – |
| COC[C@@H]1C[C@@H](C)CC/C=C\[C@@H]2C[C@@]2(C(=O)NS(=O)(=O)C2(C)CC2)NC(=O)[C@@H]2C[C@@H](Oc3ncc(OC)c4ccccc34)CN2C(=O)[C@H]1NC(=O)OC(C)(C)C [Compound 1011, tert-butyl ((2R,6S,7R,9S,13aS,14aR,16aS,Z)-2-((4-methoxyisoquinolin-1-yl)oxy)-7-(methoxymethyl)-9-methyl-14a-(((1-methylcyclopropyl)sulfonyl)carbamoyl)-5,16-dioxo-1,2,3,5,6,7,8,9,10,11,13a,14,14a,15,16,16a-hexadecahydrocyclopropa[e]pyrrolo[1,2-a][1,4]diazacyclopentadecin-6-yl)carbamate] | 1.01 to 5 nM | 1.01 to 5 nM | – | – |
| COC[C@@H]1CCCC/C=C\[C@@H]2C[C@@]2(C(=O)NS(=O)(=O)C2CC2)NC(=O)[C@@H]2C[C@@H](Oc3nc4cc(OC)ccc4nc3C(F)(F)F)CN2C(=O)[C@H]1NC(=O)OC(C)(C)C(F)(F)F [Compound 1021, 1,1,1-trifluoro-2-methylpropan-2-yl ((2R,6S,7R,13aS,14aR,16aS,Z)-14a-((cyclopropylsulfonyl)carbamoyl)-2-((7-methoxy-3-(trifluoromethyl)quinoxalin-2-yl)oxy)-7-(methoxymethyl)-5,16-dioxo-1,2,3,5,6,7,8,9,10,11,13a,14,14a,15,16,16a-hexadecahydrocyclopropa[e]pyrrolo[1,2-a][1,4]diazacyclopentadecin-6-yl)carbamate] | 0.1 to 0.5 nM | 1.01 to 5 nM | – | – |
| COC[C@@H]1CCCC/C=C\[C@@H]2C[C@@]2(C(=O)NS(=O)(=O)C2(C)CC2)NC(=O)[C@@H]2C[C@@H](Oc3nccc4cc(OC)ccc34)CN2C(=O)[C@H]1NC(=O)OC(C)(C)C(F)(F)F [Compound 1001, 1,1,1-trifluoro-2-methylpropan-2-yl ((2R,6S,7R,13aS,14aR,16aS,Z)-2-((6-methoxyisoquinolin-1-yl)oxy)-7-(methoxymethyl)-14a-(((1-methylcyclopropyl)sulfonyl)carbamoyl)-5,16-dioxo-1,2,3,5,6,7,8,9,10,11,13a,14,14a,15,16,16a-hexadecahydrocyclopropa[e]pyrrolo[1,2-a][1,4]diazacyclopentadecin-6-yl)carbamate] | 0.51 to 1 nM | 1.01 to 5 nM | – | – |
| COC[C@@H]1C[C@@H](C)CC/C=C\[C@@H]2C[C@@]2(C(=O)NS(=O)(=O)C2(C)CC2)NC(=O)[C@@H]2C[C@@H](Oc3ncc(OC)c4ccccc34)CN2C(=O)[C@H]1NC(=O)OC(C)(C)C(F)(F)F [Compound 1017, 1,1,1-trifluoro-2-methylpropan-2-yl ((2R,6S,7R,9S,13aS,14aR,16aS,Z)-2-((4-methoxyisoquinolin-1-yl)oxy)-7-(methoxymethyl)-9-methyl-14a-(((1-methylcyclopropyl)sulfonyl)carbamoyl)-5,16-dioxo-1,2,3,5,6,7,8,9,10,11,13a,14,14a,15,16,16a-hexadecahydrocyclopropa[e]pyrrolo[1,2-a][1,4]diazacyclopentadecin-6-yl)carbamate] | 0.51 to 1 nM | 1.01 to 5 nM | – | – |
| COC[C@@H]1C[C@@H](C)CC/C=C\[C@@H]2C[C@@]2(C(=O)NS(=O)(=O)C2(C)CC2)NC(=O)[C@@H]2C[C@@H](Oc3nc4cc(OC)ccc4nc3C(C)C)CN2C(=O)[C@H]1NC(=O)OC(C)(C)C [Compound 1029, tert-butyl ((2R,6S,7R,9S,13aS,14aR,16aS,Z)-2-((3-isopropyl-7-methoxyquinoxalin-2-yl)oxy)-7-(methoxymethyl)-9-methyl-14a-(((1-methylcyclopropyl)sulfonyl)carbamoyl)-5,16-dioxo-1,2,3,5,6,7,8,9,10,11,13a,14,14a,15,16,16a-hexadecahydrocyclopropa[e]pyrrolo[1,2-a][1,4]diazacyclopentadecin-6-yl)carbamate] | 0.51 to 1 nM | 1.01 to 5 nM | 0.63 nM | 1.78 nM |
| COC[C@@H]1C[C@H](C)CC/C=C\[C@@H]2C[C@@]2(C(=O)NS(=O)(=O)C2(C)CC2)NC(=O)[C@@H]2C[C@@H](Oc3ncc(OC)c4ccccc34)CN2C(=O)[C@H]1NC(=O)OC(C)(C)C(F)(F)F [Compound 1016, 1,1,1-trifluoro-2-methylpropan-2-yl ((2R,6S,7R,9R,13aS,14aR,16aS,Z)-2-((4-methoxyisoquinolin-1-yl)oxy)-7-(methoxymethyl)-9-methyl-14a-(((1-methylcyclopropyl)sulfonyl)carbamoyl)-5,16-dioxo-1,2,3,5,6,7,8,9,10,11,13a,14,14a,15,16,16a-hexadecahydrocyclopropa[e]pyrrolo[1,2-a][1,4]diazacyclopentadecin-6-yl)carbamate] | 0.1 to 0.5 nM | 0.51 to 1 nM | 0.26 nM | 0.84 nM |
| COC[C@@H]1C[C@@H](C)CC/C=C\[C@@H]2C[C@@]2(C(=O)NS(=O)(=O)C2(CF)CC2)NC(=O)[C@@H]2C[C@@H](Oc3nc4cc(OC)ccc4nc3C(C)C)CN2C(=O)[C@H]1NC(=O)OC(C)(C)C [Compound 1024, tert-butyl ((2R,6S,7R,9S,13aS,14aR,16aS,Z)-14a-(((1-(fluoromethyl)cyclopropyl)sulfonyl)carbamoyl)-2-((3-isopropyl-7-methoxyquinoxalin-2-yl)oxy)-7-(methoxymethyl)-9-methyl-5,16-dioxo-1,2,3,5,6,7,8,9,10,11,13a,14,14a,15,16,16a-hexadecahydrocyclopropa[e]pyrrolo[1,2-a][1,4]diazacyclopentadecin-6-yl)carbamate] | 5.01 to 35 nM | 35 to 620 nM | – | – |
